Measured values reported in BigSolDB 2.1.

**Q.** Which solubility (mole fraction) (in ethanol, 278.15 K) does the source give for O=C1c2cccc(O)c2C(=O)c2c(O)cc(CO)cc21 here?
**A.** Its solubility (mole fraction) is 1.72e-05.

**Q.** What about the solubility (mole fraction) (in ethanol, 283.15 K) of the same compound?
**A.** The solubility (mole fraction) was 2.11e-05.

**Q.** And the solubility (mole fraction) (in ethanol, 288.15 K)?
**A.** The solubility (mole fraction) was 2.45e-05.

**Q.** What about the solubility (mole fraction) (in ethanol, 293.15 K) of the same compound?
**A.** The solubility (mole fraction) was 3.09e-05.

**Q.** What about the solubility (mole fraction) (in ethanol, 298.15 K) of the same compound?
**A.** The solubility (mole fraction) was 3.74e-05.

**Q.** What about the solubility (mole fraction) (in ethanol, 303.15 K) of the same compound?
**A.** The solubility (mole fraction) was 4.36e-05.

**Q.** What about the solubility (mole fraction) (in ethanol, 308.15 K) of the same compound?
**A.** The solubility (mole fraction) was 5.05e-05.

**Q.** What about the solubility (mole fraction) (in ethanol, 313.15 K) of the same compound?
**A.** Its solubility (mole fraction) is 6.2e-05.

**Q.** And the solubility (mole fraction) (in ethanol, 318.15 K)?
**A.** The solubility (mole fraction) was 7.56e-05.

**Q.** What about the solubility (mole fraction) (in methanol, 278.15 K) of the same compound?
**A.** The solubility (mole fraction) was 1.66e-06.

**Q.** And the solubility (mole fraction) (in methanol, 283.15 K)?
**A.** The solubility (mole fraction) was 2.23e-06.

**Q.** And the solubility (mole fraction) (in methanol, 288.15 K)?
**A.** Its solubility (mole fraction) is 3.1e-06.

**Q.** What about the solubility (mole fraction) (in methanol, 293.15 K) of the same compound?
**A.** Its solubility (mole fraction) is 4.29e-06.

**Q.** What about the solubility (mole fraction) (in methanol, 298.15 K) of the same compound?
**A.** The solubility (mole fraction) was 5.39e-06.

**Q.** And the solubility (mole fraction) (in methanol, 303.15 K)?
**A.** Its solubility (mole fraction) is 7.71e-06.

**Q.** And the solubility (mole fraction) (in methanol, 308.15 K)?
**A.** The solubility (mole fraction) was 1.13e-05.

**Q.** And the solubility (mole fraction) (in methanol, 313.15 K)?
**A.** The solubility (mole fraction) was 1.6e-05.

**Q.** And the solubility (mole fraction) (in methanol, 318.15 K)?
**A.** Its solubility (mole fraction) is 2.33e-05.

**Q.** And the solubility (mole fraction) (in n-butanol, 278.15 K)?
**A.** Its solubility (mole fraction) is 4.59e-05.

**Q.** What about the solubility (mole fraction) (in n-butanol, 283.15 K) of the same compound?
**A.** Its solubility (mole fraction) is 5.17e-05.

**Q.** What about the solubility (mole fraction) (in n-butanol, 288.15 K) of the same compound?
**A.** Its solubility (mole fraction) is 6.49e-05.

**Q.** And the solubility (mole fraction) (in n-butanol, 293.15 K)?
**A.** The solubility (mole fraction) was 7.71e-05.

**Q.** And the solubility (mole fraction) (in n-butanol, 298.15 K)?
**A.** Its solubility (mole fraction) is 9.05e-05.

**Q.** What about the solubility (mole fraction) (in n-butanol, 303.15 K) of the same compound?
**A.** Its solubility (mole fraction) is 0.000102.

**Q.** And the solubility (mole fraction) (in n-butanol, 308.15 K)?
**A.** Its solubility (mole fraction) is 0.000122.

**Q.** What about the solubility (mole fraction) (in n-butanol, 313.15 K) of the same compound?
**A.** Its solubility (mole fraction) is 0.000137.

**Q.** What about the solubility (mole fraction) (in n-butanol, 318.15 K) of the same compound?
**A.** The solubility (mole fraction) was 0.00016.

**Q.** And the solubility (mole fraction) (in n-pentanol, 278.15 K)?
**A.** The solubility (mole fraction) was 7e-05.

**Q.** And the solubility (mole fraction) (in n-pentanol, 283.15 K)?
**A.** The solubility (mole fraction) was 8.33e-05.

**Q.** And the solubility (mole fraction) (in n-pentanol, 288.15 K)?
**A.** Its solubility (mole fraction) is 0.0001.

**Q.** What about the solubility (mole fraction) (in n-pentanol, 293.15 K) of the same compound?
**A.** Its solubility (mole fraction) is 0.000118.

**Q.** And the solubility (mole fraction) (in n-pentanol, 298.15 K)?
**A.** The solubility (mole fraction) was 0.000138.

**Q.** And the solubility (mole fraction) (in n-pentanol, 303.15 K)?
**A.** The solubility (mole fraction) was 0.000158.

**Q.** And the solubility (mole fraction) (in n-pentanol, 308.15 K)?
**A.** Its solubility (mole fraction) is 0.00018.

**Q.** What about the solubility (mole fraction) (in n-pentanol, 313.15 K) of the same compound?
**A.** Its solubility (mole fraction) is 0.000207.

**Q.** And the solubility (mole fraction) (in n-pentanol, 318.15 K)?
**A.** Its solubility (mole fraction) is 0.000245.

**Q.** And the solubility (mole fraction) (in n-propanol, 278.15 K)?
**A.** The solubility (mole fraction) was 1.82e-05.

**Q.** What about the solubility (mole fraction) (in n-propanol, 283.15 K) of the same compound?
**A.** The solubility (mole fraction) was 2.49e-05.

**Q.** And the solubility (mole fraction) (in n-propanol, 288.15 K)?
**A.** Its solubility (mole fraction) is 3.07e-05.

**Q.** And the solubility (mole fraction) (in n-propanol, 293.15 K)?
**A.** Its solubility (mole fraction) is 4e-05.

**Q.** What about the solubility (mole fraction) (in n-propanol, 298.15 K) of the same compound?
**A.** The solubility (mole fraction) was 5.26e-05.

**Q.** What about the solubility (mole fraction) (in n-propanol, 303.15 K) of the same compound?
**A.** The solubility (mole fraction) was 6.56e-05.

**Q.** What about the solubility (mole fraction) (in n-propanol, 308.15 K) of the same compound?
**A.** The solubility (mole fraction) was 7.38e-05.

**Q.** What about the solubility (mole fraction) (in n-propanol, 313.15 K) of the same compound?
**A.** The solubility (mole fraction) was 9.21e-05.

**Q.** And the solubility (mole fraction) (in n-propanol, 318.15 K)?
**A.** Its solubility (mole fraction) is 0.000116.

**Q.** And the solubility (mole fraction) (in sec-butanol, 278.15 K)?
**A.** Its solubility (mole fraction) is 1.62e-05.

**Q.** And the solubility (mole fraction) (in sec-butanol, 283.15 K)?
**A.** The solubility (mole fraction) was 2.05e-05.

**Q.** What about the solubility (mole fraction) (in sec-butanol, 288.15 K) of the same compound?
**A.** The solubility (mole fraction) was 2.71e-05.

**Q.** And the solubility (mole fraction) (in sec-butanol, 293.15 K)?
**A.** The solubility (mole fraction) was 3.67e-05.

**Q.** What about the solubility (mole fraction) (in sec-butanol, 298.15 K) of the same compound?
**A.** The solubility (mole fraction) was 4.52e-05.

**Q.** And the solubility (mole fraction) (in sec-butanol, 303.15 K)?
**A.** Its solubility (mole fraction) is 5.44e-05.

**Q.** What about the solubility (mole fraction) (in sec-butanol, 308.15 K) of the same compound?
**A.** Its solubility (mole fraction) is 6.76e-05.

**Q.** And the solubility (mole fraction) (in sec-butanol, 313.15 K)?
**A.** The solubility (mole fraction) was 8.02e-05.

**Q.** What about the solubility (mole fraction) (in sec-butanol, 318.15 K) of the same compound?
**A.** The solubility (mole fraction) was 9.79e-05.

**Q.** What about the solubility (mole fraction) (in water, 278.15 K) of the same compound?
**A.** The solubility (mole fraction) was 2.2e-07.

**Q.** And the solubility (mole fraction) (in water, 283.15 K)?
**A.** Its solubility (mole fraction) is 3.21e-07.

**Q.** What about the solubility (mole fraction) (in water, 288.15 K) of the same compound?
**A.** Its solubility (mole fraction) is 4.43e-07.

**Q.** What about the solubility (mole fraction) (in water, 293.15 K) of the same compound?
**A.** The solubility (mole fraction) was 5.69e-07.

**Q.** And the solubility (mole fraction) (in water, 298.15 K)?
**A.** Its solubility (mole fraction) is 8.07e-07.

**Q.** And the solubility (mole fraction) (in water, 303.15 K)?
**A.** Its solubility (mole fraction) is 1.21e-06.

**Q.** What about the solubility (mole fraction) (in water, 308.15 K) of the same compound?
**A.** Its solubility (mole fraction) is 1.64e-06.

**Q.** What about the solubility (mole fraction) (in water, 313.15 K) of the same compound?
**A.** Its solubility (mole fraction) is 2.22e-06.

**Q.** What about the solubility (mole fraction) (in water, 318.15 K) of the same compound?
**A.** Its solubility (mole fraction) is 2.82e-06.
